Values quoted from earlier work in patent US20250000823A1, “METHODS AND COMPOSITIONS FOR TREATING CONDITIONS ASSOCIATED WITH CENTRAL HYPOVENTILATION” (APNIMED, INC. (DELAWARE), priority 2021, published 2025).

Tested on: patients with OHS
Details: acetazolamide alone

Structure (SMILES): CC(=O)Nc1nnc(S(N)(=O)=O)s1 [Acetazolamide, N-(5-Sulfamoyl-1,3,4-thiadiazol-2-yl)acetamide]
- alveolar ventilation: improve alveolar ventilation
